Source: PubChem BioAssay AID1963844 (Molecular Pharmacology Branch, DTP, NCI, 2024)

Test system: 422866-222-R5-J1-PDC complex spheroid viability
Experiment: Anticancer human tumor 422866-222-R5-J1-PDC patient-derived pancreatic adenocarcinoma cell line growth inhibition [POLQ]
Details: for IC50: curve of first compound; for viability, T/C: stronger effect = lower value
Procedure, shortened: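 Complex spheroid viability model combining PDC tumour cells with endothelial (HUVEC) and MSC stromal cells. Novobiocin, ART-558 or RP6685 were tested singly and in combination with standard and investigational anticancer drugs. Each was titrated in half-log steps from near clinical Cmax, or from 10 microM where Cmax was unknown.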

[1] = second compound 0.0316 µM, first compound 0.0316 µM
[2] = second compound 0.0316 µM, first compound 0.1 µM
[3] = second compound 0.0316 µM, first compound 0.316 µM
[4] = second compound 0.0316 µM, first compound 1 µM
[5] = second compound 0.0316 µM, first compound 3.16 µM
[6] = second compound 0.0316 µM, first compound 10 µM
[7] = second compound 0.1 µM, first compound 0.0316 µM
[8] = second compound 0.1 µM, first compound 0.1 µM
[9] = second compound 0.1 µM, first compound 0.316 µM
[10] = second compound 0.1 µM, first compound 1 µM
[11] = second compound 0.1 µM, first compound 3.16 µM
[12] = second compound 0.1 µM, first compound 10 µM
[13] = second compound 0.316 µM, first compound 0.0316 µM
[14] = second compound 0.316 µM, first compound 0.1 µM
[15] = second compound 0.316 µM, first compound 0.316 µM
[16] = second compound 0.316 µM, first compound 1 µM
[17] = second compound 0.316 µM, first compound 3.16 µM
[18] = second compound 0.316 µM, first compound 10 µM
[19] = second compound 1 µM, first compound 0.0316 µM
[20] = second compound 1 µM, first compound 0.1 µM
[21] = second compound 1 µM, first compound 0.316 µM
[22] = second compound 1 µM, first compound 1 µM
[23] = second compound 1 µM, first compound 3.16 µM
[24] = second compound 1 µM, first compound 10 µM
[25] = second compound 3.16 µM, first compound 0.0316 µM
[26] = second compound 3.16 µM, first compound 0.1 µM
[27] = second compound 3.16 µM, first compound 0.316 µM
[28] = second compound 3.16 µM, first compound 1 µM
[29] = second compound 3.16 µM, first compound 3.16 µM
[30] = second compound 3.16 µM, first compound 10 µM
[31] = second compound 10 µM, first compound 0.0316 µM
[32] = second compound 10 µM, first compound 0.1 µM
[33] = second compound 10 µM, first compound 0.316 µM
[34] = second compound 10 µM, first compound 1 µM
[35] = second compound 10 µM, first compound 3.16 µM
[36] = second compound 10 µM, first compound 10 µM
[37] = second compound 0.0316 µM, first compound 0.00316 µM
[38] = second compound 0.0316 µM, first compound 0.01 µM
[39] = second compound 0.1 µM, first compound 0.00316 µM
[40] = second compound 0.1 µM, first compound 0.01 µM
[41] = second compound 0.316 µM, first compound 0.00316 µM
[42] = second compound 0.316 µM, first compound 0.01 µM
[43] = second compound 1 µM, first compound 0.00316 µM
[44] = second compound 1 µM, first compound 0.01 µM
[45] = second compound 3.16 µM, first compound 0.00316 µM
[46] = second compound 3.16 µM, first compound 0.01 µM
[47] = second compound 10 µM, first compound 0.00316 µM
[48] = second compound 10 µM, first compound 0.01 µM
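Also: spheroids exposed to compounds for one week before readout.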
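For viability, T/C in this document: percent of DMSO vehicle wells luminescence so 100% = untreated viability.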

In the case of `CC1COCCN1c1cc(C2(S(C)(=N)=O)CC2)nc(-c2ccnc3[nH]ccc23)n1` (stereo not drawn) + Cc1cccc(N(C)C(=O)C2C(O)CCN2c2nc(C)cc(C(F)(F)F)c2C#N)c1, the IC50 (second compound 0.0316 µM) is reported as > 10000 nM, the IC50 (second compound 0.1 µM) is reported as 2930 nM and the IC50 (second compound 0.316 µM) is reported as 3360 nM. The IC50 (second compound 1 µM) was 4210 nM, the IC50 (second compound 3.16 µM) was 5460 nM and the IC50 (second compound 10 µM) was 4410 nM. It also gave a viability, T/C [1] of 92.5%, a viability, T/C [2] of 93.2% and a viability, T/C [3] of 98.9%. It also gave a viability, T/C [4] of 70.1%, a viability, T/C [5] of 50.9% and a viability, T/C [6] of 50.5%. It also gave a viability, T/C [7] of 101%, a viability, T/C [8] of 121% and a viability, T/C [9] of 98.9%. It also gave a viability, T/C [10] of 74.4%, a viability, T/C [11] of 45.8% and a viability, T/C [12] of 46.3%. For the same molecule, the viability, T/C [13] was 110%, the viability, T/C [14] was 110% and the viability, T/C [15] was 90.3%. The viability, T/C [16] was 83.2%, the viability, T/C [17] was 47.1% and the viability, T/C [18] was 33.8%. The viability, T/C [19] was 108%, the viability, T/C [20] was 97.6% and the viability, T/C [21] was 91.5%. For the same molecule, the viability, T/C [22] was 76.8%, the viability, T/C [23] was 47.5% and the viability, T/C [24] was 45.8%. For the same molecule, the viability, T/C [25] was 103%, the viability, T/C [26] was 103% and the viability, T/C [27] was 90.6%. It also gave a viability, T/C [28] of 73.8%, a viability, T/C [29] of 60.4% and a viability, T/C [30] of 40.3%. For the same molecule, the viability, T/C [31] was 100%, the viability, T/C [32] was 82% and the viability, T/C [33] was 93.1%. For the same molecule, the viability, T/C [34] was 59.2%, the viability, T/C [35] was 59.5% and the viability, T/C [36] was 37.4%.

For `CCCS(=O)(=O)Nc1ccc(F)c(C(=O)c2c[nH]c3ncc(-c4ccc(Cl)cc4)cc23)c1F` + Cc1cccc(N(C)C(=O)C2C(O)CCN2c2nc(C)cc(C(F)(F)F)c2C#N)c1, the IC50 (second compound 0.0316 µM) was > 10000 nM, the IC50 (second compound 0.1 µM) was > 10000 nM and the IC50 (second compound 0.316 µM) was > 10000 nM. The IC50 (second compound 1 µM) was > 10000 nM, the IC50 (second compound 3.16 µM) was > 10000 nM and the IC50 (second compound 10 µM) was > 10000 nM. It also gave a viability, T/C [1] of 92.3%, a viability, T/C [2] of 115% and a viability, T/C [3] of 122%. The viability, T/C [4] was 156%, the viability, T/C [5] was 214% and the viability, T/C [6] was 102%. For the same molecule, the viability, T/C [7] was 93%, the viability, T/C [8] was 99.1% and the viability, T/C [9] was 111%. For the same molecule, the viability, T/C [10] was 138%, the viability, T/C [11] was 200% and the viability, T/C [12] was 102%. It also gave a viability, T/C [13] of 92.6%, a viability, T/C [14] of 105% and a viability, T/C [15] of 135%. It also gave a viability, T/C [16] of 164%, a viability, T/C [17] of 143% and a viability, T/C [18] of 94.9%. It also gave a viability, T/C [19] of 98.5%, a viability, T/C [20] of 104% and a viability, T/C [21] of 124%. It also gave a viability, T/C [22] of 145%, a viability, T/C [23] of 192% and a viability, T/C [24] of 94.8%. For the same molecule, the viability, T/C [25] was 99.4%, the viability, T/C [26] was 105% and the viability, T/C [27] was 138%. The viability, T/C [28] was 163%, the viability, T/C [29] was 205% and the viability, T/C [30] was 107%. It also gave a viability, T/C [31] of 84.4%, a viability, T/C [32] of 97% and a viability, T/C [33] of 124%. It also gave a viability, T/C [34] of 149%, a viability, T/C [35] of 188% and a viability, T/C [36] of 79.2%.

`COc1cccc(OCCCN)c1-c1cc(Nc2cnc(C#N)cn2)n[nH]1` + Cc1cccc(N(C)C(=O)C2C(O)CCN2c2nc(C)cc(C(F)(F)F)c2C#N)c1 showed an IC50 (second compound 0.0316 µM) of 5.54 nM, an IC50 (second compound 0.1 µM) of 6.74 nM and an IC50 (second compound 0.316 µM) of 6.63 nM. For the same molecule, the IC50 (second compound 1 µM) was 6.92 nM, the IC50 (second compound 3.16 µM) was 5.11 nM and the IC50 (second compound 10 µM) was < 3.16 nM. It also gave a viability, T/C [37] of 65.4%, a viability, T/C [38] of 30.4% and a viability, T/C [1] of 30.1%. It also gave a viability, T/C [2] of 26.9%, a viability, T/C [3] of 36.6% and a viability, T/C [4] of 43.4%. The viability, T/C [39] was 72.7%, the viability, T/C [40] was 37.7% and the viability, T/C [7] was 31.4%. It also gave a viability, T/C [8] of 27.3%, a viability, T/C [9] of 45.7% and a viability, T/C [10] of 45.6%. For the same molecule, the viability, T/C [41] was 74.4%, the viability, T/C [42] was 32.5% and the viability, T/C [13] was 35%. For the same molecule, the viability, T/C [14] was 30.1%, the viability, T/C [15] was 51.8% and the viability, T/C [16] was 32.2%. It also gave a viability, T/C [43] of 77.7%, a viability, T/C [44] of 37.8% and a viability, T/C [19] of 28.8%. The viability, T/C [20] was 32.5%, the viability, T/C [21] was 25.9% and the viability, T/C [22] was 43.8%. The viability, T/C [45] was 58.3%, the viability, T/C [46] was 39.3% and the viability, T/C [25] was 30.4%. It also gave a viability, T/C [26] of 35.7%, a viability, T/C [27] of 29.8% and a viability, T/C [28] of 50.1%. For the same molecule, the viability, T/C [47] was 68.1%, the viability, T/C [48] was 30.3% and the viability, T/C [31] was 36.4%. It also gave a viability, T/C [32] of 30.5%, a viability, T/C [33] of 35.9% and a viability, T/C [34] of 54.9%.

For `Cn1ncnc1[C@H]1c2n[nH]c(=O)c3cc(F)cc(c23)N[C@@H]1c1ccc(F)cc1` + Cc1cccc(N(C)C(=O)C2C(O)CCN2c2nc(C)cc(C(F)(F)F)c2C#N)c1, the IC50 (second compound 0.0316 µM) was > 100 nM, the IC50 (second compound 0.1 µM) was > 100 nM and the IC50 (second compound 0.316 µM) was > 100 nM. The IC50 (second compound 1 µM) was > 100 nM, the IC50 (second compound 3.16 µM) was > 100 nM and the IC50 (second compound 10 µM) was > 100 nM. The viability, T/C (second compound 0.0316 µM, first compound 0.000316 µM) was 93.3%, the viability, T/C (second compound 0.0316 µM, first compound 0.001 µM) was 97.3% and the viability, T/C [37] was 93.7%. For the same molecule, the viability, T/C [38] was 89%, the viability, T/C [1] was 76.5% and the viability, T/C [2] was 82.1%. The viability, T/C (second compound 0.1 µM, first compound 0.000316 µM) was 116%, the viability, T/C (second compound 0.1 µM, first compound 0.001 µM) was 95.2% and the viability, T/C [39] was 90%. For the same molecule, the viability, T/C [40] was 93.2%, the viability, T/C [7] was 81.8% and the viability, T/C [8] was 65.9%. For the same molecule, the viability, T/C (second compound 0.316 µM, first compound 0.000316 µM) was 108%, the viability, T/C (second compound 0.316 µM, first compound 0.001 µM) was 97.3% and the viability, T/C [41] was 90.6%. For the same molecule, the viability, T/C [42] was 88.4%, the viability, T/C [13] was 81.4% and the viability, T/C [14] was 83.1%. For the same molecule, the viability, T/C (second compound 1 µM, first compound 0.000316 µM) was 93.9%, the viability, T/C (second compound 1 µM, first compound 0.001 µM) was 90.2% and the viability, T/C [43] was 93.6%. It also gave a viability, T/C [44] of 89%, a viability, T/C [19] of 79.3% and a viability, T/C [20] of 77.2%. For the same molecule, the viability, T/C (second compound 3.16 µM, first compound 0.000316 µM) was 95.6%, the viability, T/C (second compound 3.16 µM, first compound 0.001 µM) was 101% and the viability, T/C [45] was 94.2%. It also gave a viability, T/C [46] of 77.3%, a viability, T/C [25] of 87.4% and a viability, T/C [26] of 91.9%. It also gave a viability, T/C (second compound 10 µM, first compound 0.000316 µM) of 95.1%, a viability, T/C (second compound 10 µM, first compound 0.001 µM) of 97.7% and a viability, T/C [47] of 102%. The viability, T/C [48] was 72.5%, the viability, T/C [31] was 82.9% and the viability, T/C [32] was 83.2%.
